Measured values from ChEMBL document CHEMBL5236550, “Small molecule selenium-containing compounds: Recent development and therapeutic applications” (Eur J Med Chem, 2021).
pIC50: −log10 of the molar value. Values after ≈ are worked out from the molar mass of the structure shown.

What was measured:
MCF7 [1] = experiment: Anticancer activity against human MCF7 cells assessed as cell growth inhibition incubated for 24 hrs by ELISA based CCK8 assay; assay type: functional; conditions: MCF7, 24 h
[2] = Anticancer activity against human WM35 cells assessed as cell growth inhibition incubated for 72 hrs by MTS assay; assay type: functional, cell-based; conditions: WM35, 72 h, pooled result: one value given for 4 cell lines, strains, targets or settings
[3] = Anticancer activity against human PMNL assessed as cell growth inhibition incubated for 5 mins by luminescence reader analysis; assay type: functional, cell-based
Candida albicans [4] = experiment: Antifungal activity against Candida albicans ATC90028 assessed as […] growth inhibition; assay type: functional
Candida albicans [5] = experiment: Antifungal activity against Candida albicans ATC90028 assessed as zone of inhibition; assay type: functional
HeLa [6] = experiment: Anticancer activity against human HeLa cells assessed as cell growth inhibition incubated for 48 hrs by MTT assay; assay type: functional, cell-based
MDA-MB-361 = experiment: Anticancer activity against human MDA-MB-361 cells assessed as cell growth inhibition incubated for 48 hrs by MTT assay; assay type: functional, cell-based; conditions: MDA-MB-361, 48 h
K562 = experiment: Anticancer activity against human K562 cells assessed as cell growth inhibition incubated for 48 hrs by MTT assay; assay type: functional, cell-based; conditions: K562, 48 h
HeLa [7] = experiment: Anticancer activity against human HeLa cells assessed as cell growth inhibition incubated for 48 hrs; assay type: functional, cell-based
LS174T = experiment: Anticancer activity against human LS174T cells assessed as cell growth inhibition incubated for 48 hrs by MTT assay; assay type: functional, cell-based
PC-3 [8] = experiment: Anticancer activity against human PC-3 cells assessed as cell growth incubation incubated for 72 hrs by MTT assay; assay type: functional, cell-based; conditions: PC-3, 72 h
MCF7 [9] = experiment: Anticancer activity against human MCF7 cells assessed as cell growth incubation incubated for 72 hrs by MTT assay; assay type: functional, cell-based; conditions: MCF7, 72 h
PC-3M = experiment: Anticancer activity against human PC-3M cells assessed as cell growth inhibition incubated for 24 hrs by MTT assay; assay type: functional, cell-based
Trypanosoma cruzi = experiment: Antibacterial activity against Trypanosoma cruzi Dm28c assessed as inhibition of bacterial growth incubated for 72 hrs by microplate reader analysis; assay type: functional, organism-based
MDA-MB-231 = experiment: Anticancer activity against human MDA-MB-231 cells assessed as cell growth inhibition incubated for 72 hrs by MTT assay; assay type: functional, cell-based; conditions: MDA-MB-231, 72 h
MCF7 [10] = experiment: Anticancer activity against human MCF7 cells assessed as cell growth inhibition incubated for 72 hrs by MTT assay; assay type: functional, cell-based; conditions: MCF7, 72 h
Plasmodium falciparum = experiment: […] inhibition incubated for 72 hrs by light microscopic analysis; assay type: functional, organism-based; conditions: K-1, 72 h
UACC-375 = experiment: Anticancer activity against human UACC-375 cells assessed as cell growth inhibition measured after 6 days by SRB assay; assay type: functional, cell-based
MCF7S = experiment: Anticancer activity against human MCF7S cells assessed as cell growth inhibition measured after 6 days by SRB assay; assay type: functional; conditions: time 6 day
HT-29 = experiment: Anticancer activity against human HT-29 cells assessed as cell growth inhibition measured after 6 days by SRB assay; assay type: functional, cell-based; conditions: HT-29, 144 h
DU-145 = experiment: Anticancer activity against human DU-145 cells assessed as cell growth inhibition measured after 6 days by SRB assay; assay type: functional, cell-based; conditions: DU-145, 144 h
A549 = experiment: Anticancer activity against human A549 cells assessed as cell growth inhibition measured after 6 days by SRB assay; assay type: functional, cell-based; conditions: A549, 144 h
MCF7 [11] = experiment: Anticancer activity against human MCF7 cells assessed as cell growth inhibition; assay type: functional, cell-based
T47D = experiment: Anticancer activity against human T47D cells assessed as cell growth inhibition; assay type: functional, cell-based
[12] = system: Encephalomyocarditis virus; experiment: Antiviral activity against Encephalomyocarditis virus infected in A549 cells assessed as viral growth inhibition incubated for 1 hrs; assay type: functional, organism-based; conditions: Cardiovirus A, A549, 1 h
Human alphaherpesvirus 1 = experiment: Antiviral activity against Herpes simplex virus 1infected in A549 cells assessed as viral growth inhibition incubated for 1 hrs; assay type: functional
PC-3 [13] = experiment: Anticancer activity against human PC-3 cells assessed as cell growth inhibition incubated for 72 hrs by MTT assay; assay type: functional, cell-based; conditions: PC-3, 72 h
BGC-823 = experiment: Anticancer activity against human BGC-823 cells assessed as cell growth inhibition incubated for 72 hrs by MTT assay; assay type: functional, cell-based; conditions: BGC-823, 72 h
Caco-2 = experiment: Anticancer activity against human Caco-2 cells assessed as cell growth inhibition incubated for 72 hrs by MTT assay; assay type: functional, cell-based; conditions: Caco-2, 72 h
HepG2 = experiment: Anticancer activity against human HepG2 cells assessed as cell growth inhibition incubated for 72 hrs by fluorescence based MTT assay; assay type: functional; conditions: HepG2, 72 h
MCF7 [14] = experiment: Anticancer activity against human MCF7 cells assessed as cell growth inhibition incubated for 72 hrs by fluorescence based MTT assay; assay type: functional; conditions: MCF7, 72 h
A-375 [15] = experiment: Anticancer activity against human A-375 cells assessed as cell growth inhibition incubated for 72 hrs by fluorescence based MTT assay; assay type: functional; conditions: A-375, 72 h
Pichia kudriavzevii = experiment: Antifungal activity against Candida krusei assessed as fungal growth inhibition incubated for 24 to 48 hrs by microdilution method; assay type: functional; conditions: time 24-48 hrs
LNCaP = experiment: Anticancer activity against human LNCaP cells assessed as cell growth inhibition incubated for 1.5 hrs by MTT assay; assay type: functional, cell-based
LNCaP C4-2 = experiment: Anticancer activity against human LNCaP C4-2 cells assessed as cell growth inhibition incubated for 24 hrs by MTT assay; assay type: functional, cell-based; conditions: LNCaP C4-2, 24 h
CNE-2 = experiment: Anticancer activity against human CNE-2 cells assessed as cell growth inhibition incubated for 72 hrs by MTT assay; assay type: functional, cell-based; conditions: CNE-2, 72 h
SW-620 = experiment: Anticancer activity against human SW620 cells assessed as cell growth inhibition incubated for 72 hrs by MTT assay; assay type: functional, cell-based; conditions: SW-620, 72 h
HL-60 = experiment: Anticancer activity against human HL-60 cells assessed as cell growth inhibition incubated for 72 hrs by MTT assay; assay type: functional, cell-based; conditions: HL-60, 72 h
A-375 [16] = experiment: Anticancer activity against human A-375 cells assessed as cell growth inhibition incubated for 72 hrs by MTT assay; assay type: functional, cell-based; conditions: A-375, 72 h
SH-SY5Y = experiment: Anticancer activity against human SH-SY5Y cells assessed as cell viability incubated for 24 hrs by MTT assay relative to control; assay type: functional

Clc1ccc([Se][Se]c2ccc(Cl)nn2)nn1
pIC50 (MCF7 [1]): 4.99

Cc1ccc(-c2cc(C(F)(F)F)nn2-c2ccc(S(N)(=O)=O)cc2)cc1 [CELECOXIB]
pIC50 [2]: 4.25

CCN(CC)C(=[Se])c1ccc(Cl)cc1
pIC50 [3]: 4.69

Cc1ccc(C(=O)C[C@@H](c2ccc(Cl)cc2)[C@@H]2CCCc3[se]nnc32)cc1
MIC (Candida albicans [4]): 12.5 µg/mL (≈ 28.2 µM)
inhibition zone (IZ) (Candida albicans [5]): 17 mm

NC(=[Se])N/N=C/c1cccc2cccnc12
pIC50 (HeLa [6]): 5.04
pIC50 (MDA-MB-361): 5.04
pIC50 (K562): 5.40
pIC50 (HeLa [7]): 5.18
pIC50 (LS174T): 4.84

O=C(O)C[Se]C(=O)Cc1ccccc1
pIC50 (PC-3 [8]): 5.54
pIC50 (MCF7 [9]): 8.22

N#C[Se]Cc1cc(-c2ccccc2)n(-c2ccc(S(N)(=O)=O)cc2)n1
pIC50 (PC-3M): 5.30

NC(=[Se])NN=C(c1cccc(Br)c1)c1cccc(Br)c1
pIC50 (Trypanosoma cruzi): 5.92

COc1cc(OC)cc(C(=O)[Se]CC(=O)O)c1
pIC50 (PC-3 [8]): 5.40

Brc1ccc2nc(-c3ccc4n[se]nc4c3)[nH]c2c1
pIC50 (MDA-MB-231): 5.89
pIC50 (MCF7 [10]): 4.81

C[Se]CC[C@H](N)C(=O)O [SELENOMETHIONINE]
pIC50 (Plasmodium falciparum): 4.35
pIC50 (UACC-375; Homo sapiens, UACC-375, 144 h): 4.30
IC5 (UACC-375; time 6 day): 50 µM
IC5 (MCF7S): 45 µM
pIC50 (HT-29): 3.89
pIC50 (DU-145): 4.40
pIC50 (A549): 4.19

O=C(O)C[Se]C(=O)c1cccnc1Cl
pIC50 (PC-3 [8]): 5.00
pIC50 (MCF7 [9]): 8.52

Cc1ccc2nc(-c3ccc4n[se]nc4c3)[nH]c2c1
pIC50 (MDA-MB-231): 6.00
pIC50 (MCF7 [10]): 5.39

O=C(NC(=[Se])Nc1ccccc1)c1cccs1
pIC50 (MCF7 [11]): 5.38
pIC50 (T47D): 5.21

c1ccc2[nH]c(-c3ccc4n[se]nc4c3)nc2c1
pIC50 (MDA-MB-231): 4.91
pIC50 (MCF7 [10]): 4.81

O=C(O)C[Se]C(=O)c1ccccc1
pIC50 (PC-3 [8]): 5.17
pIC50 (MCF7 [9]): 7.05

CCOC(=O)n1[se]c2ccccc2c1=O
IC50 [12]: 10 µg/mL (≈ 37 µM)
MIC (Human alphaherpesvirus 1): 10 µg/mL (≈ 37 µM)

[Se]=C(c1ccccc1)N1CCCCC1
pIC50 [3]: 4.95

O=C(NCCC[Se][Se]CCCNC(=O)c1ccccc1Nc1cccc(C(F)(F)F)c1)c1ccccc1Nc1cccc(C(F)(F)F)c1
pIC50 (PC-3 [13]): 5.18
pIC50 (BGC-823): 5.08
pIC50 (Caco-2): 5.41
pIC50 (MCF7 [10]): 5.17

O=c1[nH]c(=O)c2n[se]nc2[nH]1
pIC50 (HepG2): 4.71
pIC50 (MCF7 [14]): 4.34
pIC50 (A-375 [15]): 4.84

CCCC/C(=N\NC(N)=[Se])c1ccc(Cl)c(Cl)c1
pIC50 (Trypanosoma cruzi): 5.92

Brc1ccc(-c2c[se]c(NN=C3CCSCC3)n2)cc1
MIC (Pichia kudriavzevii): 3.91 µg/mL (≈ 9.42 µM)

N#C[Se]Cc1ccc(C[Se]C#N)cc1
pIC50 (LNCaP): 5.15
pIC50 (LNCaP C4-2): 5.12

N[C@@H](C[Se][Se]C[C@H](N)C(=O)O)C(=O)O
pIC50 (CNE-2): 5.25
pIC50 (Plasmodium falciparum): 4.19
pIC50 (SW-620): 5.14
pIC50 (HL-60): 4.46
pIC50 (A-375 [16]): 5.44

O=c1c2ccccc2[se]n1-c1ccccn1
Activity (SH-SY5Y): 84%
